pIC50: −log10 of the molar value.
molecular target: T1, Dipeptidyl peptidase 1 (Homo sapiens, UniProt P53634); assay: Inhibition of recombinant human DPPI using H-Gly-Arg-AFC as substrate preincubated for 30 mins followed by substrate addition measured after 60 mins by fluorescence plate reader analysis
T1 sequence (P53634 25-134 limits assumed): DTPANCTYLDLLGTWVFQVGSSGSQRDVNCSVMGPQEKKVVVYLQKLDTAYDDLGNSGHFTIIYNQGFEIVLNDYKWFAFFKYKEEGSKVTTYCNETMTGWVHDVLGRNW
T1 sequence (P53634 231-394 limits assumed): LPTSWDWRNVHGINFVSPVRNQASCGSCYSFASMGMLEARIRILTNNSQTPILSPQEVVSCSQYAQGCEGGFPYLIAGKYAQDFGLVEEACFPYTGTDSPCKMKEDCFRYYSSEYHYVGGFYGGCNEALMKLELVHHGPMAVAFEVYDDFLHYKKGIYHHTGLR
T1 sequence (P53634 395-463 limits assumed): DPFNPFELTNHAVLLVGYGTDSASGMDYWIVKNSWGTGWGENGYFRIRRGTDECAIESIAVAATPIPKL

Row | SMILES | pIC50
1 | N#Cc1ccc(-c2ccc(C[C@@H](C#N)NC(=O)[C@@H]3CC(F)(F)CN3)cc2)cc1 | 7.10
2 | N#Cc1ccc(-c2ccc(C[C@@H](C#N)NC(=O)[C@@H]3C[C@@H](F)CN3)cc2)cc1 | 6.20
3 | N#Cc1ccc(-c2ccc(C[C@@H](C#N)NC(=O)[C@@H]3C[C@H](O)CN3)cc2)cc1 | 8.20
4 | CS[C@@H]1CN[C@H](C(=O)N[C@H](C#N)Cc2ccc(-c3ccc(C#N)cc3)cc2)C1 | 9.40
5 | N#Cc1ccc(-c2ccc(C[C@@H](C#N)NC(=O)[C@@H]3CCCN3)cc2)cc1 | 7.30
6 | N#Cc1ccc(-c2ccc(C[C@@H](C#N)NC(=O)[C@@H]3C[C@H](F)CN3)cc2)cc1 | 8.80

molecular target: T1, Dipeptidyl peptidase 1; assay: Inhibition of recombinant human DPPI using H-Gly-Arg-AMC as substrate preincubated for 30 mins followed by substrate addition measured after 60 mins by fluorescence plate reader analysis

Row | SMILES | pIC50
7 | N#C[C@H](Cc1ccc(-c2ccccc2)cc1)NC(=O)[C@@H]1C[C@@H](O)CN1 | 6.80
8 | N#Cc1ccc(-c2ccc(C[C@@H](C#N)NC(=O)[C@@H]3C[C@@H](O)CN3)cc2)cc1 | 7.30

— ChEMBL document CHEMBL4304796, “DPP1 Inhibitors: Exploring the Role of Water in the S2 Pocket of DPP1 with Substituted Pyrrolidines” (ACS Med Chem Lett, 2019)
